Data reported in US8354438B2, “Neurological functions” (priority 2001, dated 2013).
“And” between values parts separate entries of the source, which are not always exact repeats. Equal entries are not always repeated.

Key:
[1] = test system: animals subject to hyperbaric oxygen; details: reported by Bondarenko; cited from earlier work
carnosinase = details: compared with the parent compound carnosine; Boldyrev 2000; cited from earlier work
[2] = test system: patients with autism, pervasive developmental disorder, brain injury, cerebral palsy and epilepsy; assay: Carnosine dietary supplement to improve cognitive functions impaired by neurological disorders (Example 2); assay type: in vivo, human; details: carnosine 200 mg to 2,000 mg per day, orally
Experimental: It is hypothesized that carnosine may improve cognitive functions of patients suffering from various disorders. These disorders include autism, pervasive developmental disorder, brain injury, cerebral palsy and epilepsy. There are currently no drugs or treatments available whose primary function is to elevate carnosine levels as a treatment for the previously mentioned disorders. Patients afflicted with the above disorders were treated with a dietary supplement of carnosine in dosages of 200 mg to 2,000 mg per day. The carnosine supplement is available in gel capsule form from Alfa Chem (Kings Point, N.Y.).
The carnosine supplement can be administered orally several times daily. The results indicated an increase in cognitive processing speed, an increase in language skills, and improved motor skills. Patients have increased their amount of speech and language and the level of maturity of speech.

animals = details: both decreasing mortality and improving recovery; Stvolinsky and Dobrota 2000; cited from earlier work
[3] = test system: children with intractable seizures; assay: L-carnosine add-on therapy in children with intractable seizures, EEG and seizure frequency (Example 3); assay type: in vivo, human; details: after 10 weeks at 400 mg p.o. b.i.d.
Description: L-carnosine is an amino acid dipeptide (histidine and alanine), that may indirectly affect spike and wave discharges by altering GABA bioavailability or affecting copper and zinc influx at the cellular level. […] We hypothesized that carnosine ingestion would modulate homocarnosine in the brain, causing spike and wave activity to decrease and seizure control to improve. We gave L-carnosine to four patents as add-on therapy for intractable spike-wave discharge and documented changes in both clinical (overt seizures) and physiological (EEG) status.
Seven children (3 female, 4 male, age range 2-12) met inclusion criteria. All had intractable seizures for at least two years, had failed at least 3 anticonvulsants, had documented, abnormal generalized or secondarily generalized spike-wave, atypical absence, or Lennox-Gastaut Syndrome. All families signed written consent from an IRB approved protocol. All children were evaluated with a Baseline EEG on the same day they were started on 400 mg b.i.d. of L-carnosine. Carnosine from, for example, Alfa Chem in either powder or capsule form. Carnosine may also be obtained from MAYPRO (Purchase, N.Y.), as well as various other suppliers. Post-treatment EEG was undertaken after 10 weeks of L-carnosine therapy. No other concurrent medications were changed. All patients had failed multiple medication treatments prior to the addition of carnosine. These medications included valproic acid, topimirate, benzodiazepines, steroids, carbamazepine, phenytoin, zonisamide, lamotrigine, and phenobarbital.

[4] = test system: children with Autistic Spectrum Disorder; assay: 8 week double-blind placebo-controlled carnosine study in children with Autistic Spectrum Disorder (Example 4); assay type: in vivo, human; details: for Fax ratings (week 2 vs. week 6): on carnosine 400 mg twice a day, Mean (SD)
Description: The following protocol was designed to target the purported brain region of dysfunction in ASD, via supplementation with a naturally-occurring amino acid which is believed to act upon frontal lobe systems or GABA receptors. We sought to eliminate the “expectancy effect” of medication augmentation by enrolling children in a study so that both the clinicians and parents were blinded to group assignment.
Children were included for study if they met the following criteria: ages 3-12, prior diagnoses of Autistic Spectrum Disorder (including either Pervasive Developmental Disorder or Autistic Disorder, by DSMIVR). American Psychiatric Association. Diagnostic and Statistical Manual of Mental Disorders, 4th ed. Washington D.C., 1993. […] Children were enrolled in the study irrespective of cognitive ability level.
All children were tested at baseline in the following domains: expressive language (Expressive One Word Picture Vocabulary test, EOWPVT), receptive language (Receptive One Word Picture Vocabulary test, ROWPVT), autism severity ratings (Childhood Autism Rating Scale; CARS, and Gilliam Autism Rating Scales; GARS), and Clinical Global linpresssions (CGI) completed by parents. At baseline and eight-week testing, all children underwent the CARS, GARS, EOWPVT, ROWPVT, and CGI. Schopler, E., Reichler, R. J., Renner, B. R. The Childhood Autism Rating Scale: CARS. Los Angeles, Calif.: Western Psychological Sciences 1988. Gilliam, J. E. The Gilliam Autism Rating Scale: GARS. Austin, Tex.: Pro-Ed Inc. 1995. Gardner, M. F. Receptive One-Word Picture Vocabulary Test: ROWPVT. Novato, Calif.: Academic Therapy Publications 1985. Gardner, M. F. Expressive One-Word Picture Vocabulary Test (Revised): EOWPVT-R. Novato, Calif.: Academeic Therapy Publication 1990. Children were tested with their parents in the room of a pediatric neurology clinic in a room dedicated to assessment. Parents signed informed written consent (approved by the Lake Forest Hospital Institutional Review Board) before being randomly assigned to either active agent or placebo, and reporting of adverse events was explained per office emergency policy. Because of our prior experience with the substance in an open-label format, we were able to caution regarding the following potential adverse events: hyperactivity, excitability
Both placebo and active substance were identical in powdered appearance, without taste or smell. All pills were contained by a gelatin capsule; parents were instructed to mix the powder with either food or drink. Dosage of carnosine was 400 mg by mouth twice a day.
Every two weeks, parents faxed a CGI regarding their child. The CGI was a 5 point rating scale covering the following domains: (1) Socialization, interaction with others during play, (2) Spontaneous, expressive language or vocalizations, (3) Attention span, “focus”/eye contact, alertness level, (4) Agitation and hyperactivity or lethargy, energy level, Petroff, O. A. C. et al., Neurology 2001; 56:709-715. Coordination, body use, gross motor movements, (6) Anxiety, rigidity, preservation, adaptation to change. A score of “0” indicated “No Change”, a score of “5” indicated a “Great improvement.” Parents were not allowed to refer back to faxes from the prior two week period, so that each rating was essentially “blinded” to the week before. An overall baseline CGI was then compared with an ending CGI.
Thirty-one children (21 M, mean age=7.45; range 3.2-12.5) meeting inclusion criteria were enrolled in an 8 week, double-blind placebo-controlled study. Children were entered randomly into one of two groups: Group I (n=17) received a placebo for the first 8 weeks, while Group II (n=14) received the active substance. Children were assessed at Baseline in the following domains: […]

adult clinical trials = details: among 691 cases of adult clinical trials; Matsukura and Tanaka 2000; cited from earlier work
[5] = test system: rat model genetically predisposed to audiogenic epilepsy; details: carnosine injected prior to acoustic stress; Stvolinsky and Dobrota 2000; cited from earlier work
[6] = 8-Week on carnosine 400 mg twice a day, n = 14, Mean (SD), vs baseline .01, vs placebo NS
[7] = 8-Week on carnosine 400 mg twice a day, n = 14, Mean (SD), vs baseline NS, vs placebo NS
[8] = Baseline, active carnosine group n = 14, Mean (SD)

NCCCC(=O)N[C@@H](Cc1cnc[nH]1)C(=O)O [homocarnosine, γ-Aminobutyryl-L-histidine]
convulsions under hyperbaric oxygen [1]: protects against the convulsions
rate of hydrolysis (carnosinase): negligible

β-Alanlyl-L-histidine [carnosine]
amount of speech and language and level of maturity of speech [2]: increased
cognitive processing speed [2]: increase
language skills [2]: increase
motor skills [2]: improved
receptive language [2]: improved
resistance towards ionizing radiation, hypobaric hypoxia, and supercooling (animals): enhances the resistance
patients with improved seizure frequency (of 7) [3]: 7 patients
children with decreased frequency of polyspikes ([3]; 7 children): 2 children
children with improved background and decreased electrographic slow-spike and wave activity ([3]; 7 children): 2 children
children with improved secondarily generalized spike-wave activity ([3]; 7 children): 1 child
children with no significant EEG changes ([3]; 7 children): 2 children
children with documented improved EEG findings (of 7) ([3]; add-on): 5 children
patients with reported improvements in global cognition, behavior, and language function (of 7) ([3]; not evaluated formally): 7 patients
CGI ([4]; 8-Week on carnosine 400 mg by mouth twice a day, n = 14, Mean (SD), vs baseline .06, vs placebo NS): 16.39 (4.36)
GARS [4, 6]: 44.36 (14.94) and 44.35 (14.93)
GARS Socialization Scale [4, 6]: 13.36 (6.58)
ROWPVT (age-adjusted) [4, 6]: 47.85 (28.37) and 47.86 (28.37)
ROWPVT (raw) [4, 6]: 44.64 (26.56)
GARS Communication Scale ([4]; 8-Week on carnosine 400 mg twice a day, n = 14, Mean (SD), vs baseline .03, vs placebo NS): 18.14 (6.27)
GARS Behavior Scale ([4]; 8-Week on carnosine 400 mg twice a day, n = 14, Mean (SD), vs baseline .04, vs placebo NS): 12.85 (5.95)
CARS ([4]; 8-Week on carnosine 400 mg twice a day, n = 14, Mean (SD), vs baseline .07, vs placebo NS): 29.75 (7.53)
EOWPVT (age-adjusted) [4, 7]: 43.78 (28.22)
EOWPVT (raw) [4, 7]: 37.28 (25.66)
CARS [4, 8]: 31.71 (6.55)
CGI [4, 8]: 14.50 (3.65)
EOWPVT (age-adjusted) [4, 8]: 40.71 (23.44)
EOWPVT (raw) [4, 8]: 35.36 (20.87)
GARS [4, 8]: 55.50 (16.35)
GARS Behavior Scale [4, 8]: 15.71 (6.65)
GARS Communication Scale [4, 8]: 21.64 (7.99)
GARS Socialization Scale [4, 8]: 18.14 (6.30)
ROWPVT (age-adjusted) [4, 8]: 40.57 (24.55)
ROWPVT (raw) [4, 8]: 38.00 (23.68)
side effects reported by parents ([4]; alleviated by decreasing the dose): only sporadic hyperactivity
discontinuation of the study due to side effects ([4]; carnosine 400 mg twice a day, 8 weeks): Not a single child
receptive speech, socialization, and behavior in children with autistic spectrum disorders ([4]; supplementation with carnosine, 8 weeks): significantly improve
Fax ratings (week 2 vs. week 6) ([4]; week 2 (column Baseline)): 2.03 (2.24)
Fax ratings (week 2 vs. week 6) ([4]; week 6 (column 8-Week), vs week 2 .04): 4.92 (5.69)
symptomatic side effects (adult clinical trials): no symptomatic side effects
audiogenic seizures [5]: moderation of such seizures
